Here are results for eight molecules from patent EP3290412A1, “HIV-1 NUCLEOCAPSID INHIBITORS” (Università degli Studi di Siena, priority 2016, dated 2018).

For data set [1], the system named is NIH Catalogue Number: 12229. The settings on record: cited from earlier work.
In data set [2] the test system is NIH Catalogue Number: 12231. The settings on record: cited from earlier work.
A further data set deals with NC(11-55) (Human immunodeficiency virus type 1, UniProt P12493). In words: NC inhibition assay (NC-induced cTAR DNA destabilization, fluorescence). It counts as biochemical, HIV-1. To be noted: for IC50: cTAR DNA 0.1 µM, 1 µM NC(11-55), 20 °C, pH 7.5, read-out: NC inhibition IC50; for inhibition at 100 µM: single point screening, positive = >25% inhibition at 100µM. The source says: The NC inhibition assay is based on the nucleic acid chaperone activity of the NC protein. NC destabilizes the secondary structure of cTAR DNA, the complementary sequence of the transactivation response element, which is involved in minus-strand DNA transfer during reverse transcription. In the assay, the cTAR sequence from the HIV-1 Mal strain (Bernacchi et al, J Mol Biol, 2002) is labeled with a dye (Alexa488 fluorophore) and a quencher 4-(4'-dimethylaminophenylazo)benzoic acid (Dabcyl) at its 5' and 3' ends, respectively. In the absence of destabilization, the close proximity of both cTAR ends results in a strong fluorescence quenching of the dye emission by the Dabcyl group. NC(11-55) added to cTAR at a ratio of 10 NC/cTAR melts the bottom of the cTAR stem, which increases the distance between the dye and the quencher and as a result increases the dye fluorescence signal [Shvadchak et al, (2009) Identification by high throughput screening of small compounds inhibiting the nucleic acid destabilization activity of the HIV-1 nucleocapsid protein. Biochimie, 916-923]. NCIs are expected to prevent the NC-induced destabilization of cTAR and thus reverse the NC-induced increase in the fluorescence of the labeled cTAR. The activity of the inhibitor is thus evaluated from the ratio of the fluorescence intensity observed in the presence of NC with the molecule to the one in the absence of the compound.
The doubly labelled cTAR DNA oligonucleotides (55nt) were synthesised and purified by IBA GmbH Nucleic Acids Product Supply (Göttingen, Germany). Extinction coefficient at 260 nm of 5.73 x 10^5 M^-1 cm^-1 was used to determine the concentration of cTAR.
The NC(11-55) peptide (Avilov et al, Antimicrob Agents Chemother, 2012) was synthesized by solid-phase peptide synthesis on a 433A synthesizer (ABI, Foster City, CA) as previously described [De Rocquigny H, (1991) First large scale chemical synthesis of the 72 amino acid HIV-1 nucleocapsid protein NCp7 in an active form. Biochem Biophys Res Commun., 1010-1018]. The peptide was stored lyophilized and was resuspended in water before use. The concentration of peptide was determined by using an extinction coefficient of 5.7 x 10^3 M^-1 cm^-1 at 280 nm. Next, 2.5 molar equivalents of ZnSO4 were added and pH was raised to its final value by adding buffer.
All experiments were performed at 20 °C in 25 mM Tris-HCl (pH 7.5), 30 mM NaCl, and 0.2 mM MgCl2. To evaluate the inhibition activity of compounds on NC-induced cTAR destabilization, cTAR DNA (0.1 µM) was preincubated with 1 µM NC(11-55) (molar ratio NC:cTAR = 10:1) for 15 min at room temperature before addition of compound. For single point screening, all compounds were tested at three final concentrations: 1 µM, 10 µM and 100 µM. For the IC50 determination, inhibition of NC-induced cTAR melting was monitored through addition of increasing concentrations of the selected molecules to the pre-formed NC(11-55)-cTAR complex. After the addition of compound, the mixture was incubated for 15 min at room temperature before the reading. The fluorescence signal was recorded with a plate reader Xenius (SAFAS Monaco) or Fluoromax 3 spectrofluorometer (Horiba Jobin-Yvon), and the excitation and emission wavelengths were 480 and 520 nm, respectively. The spectra were corrected for dilution, buffer fluorescence and screening effect (when it was required). In order to check the occurrence of aggregation, we performed additional reading of absorption with the plate reader Xenius (SAFAS Monaco) or Cary 4000 spectrophotometer (Agilent). […]

Data set [3] addresses T1, full length (1-55) HIV-1 NCp7 (Human immunodeficiency virus type 1 group M subtype B, UniProt P12493).
T1 construct: recombinant full length (1-55) HIV-1 NCp7 proteins; made in house
In words: Electromobility Shift Assay (EMSA), competition for ssDNA binding. The settings on record: NCp7 300 nM, M13mp18 ssDNA; positive = >25% inhibition at 100µM. The source says:
The assay used a recombinant full length (1-55) HIV-1 NCp7 proteins based on the NL4-3 sequence (GenBank accession number AF324493). The protein was expressed and purified as described in [Carteau, S., Gorelick, R. J. & Bushman, F. D. Coupled integration of human immunodeficiency virus type 1 cDNA ends by purified integrase in vitro: stimulation by the viral nucleocapsid protein. Journal of virology 73, 6670-6679 (1999)].
Competition for single-stranded (ss) DNA binding was realized by mixing 1 µL of serial dilutions of NC inhibitors (diluted in DMSO) with 44 µL of NCp7 (300 nM) in a reaction buffer (20 mM Tris-HCl pH 7.4, 2 mM MgCl2, 100 mM NaCl, 1 mM DTT). 5 µL of a 10 ng/µL (4 nM) solution of M13mp18 ssDNA (BayouBiolabs) were then added and the tubes were incubated for 25 minutes at 37 °C. The reaction was terminated by chilling the tubes on ice followed by the addition of 5 µL of a loading buffer (30% glycerol, 0.01% xylene cyanol, 10 mM Tris-HCl pH 7.4). Samples were then resolved on 25 cm-long, 1% (w/v) agarose gels (SeaKem LE Agarose, Lonza) in 0.5x TBE. Gels were run in a Sub-Cell GT cuvette (BioRad) for 18 h at room temperature at 3 V/cm, stained with SybrGold (Molecular Probes) and scanned for fluorescence using a Typhoon 8600 (GE Healthcare). The experiments were performed in triplicate. Competition efficiency was realized by measuring the relative distance in pixels between the unbound ssDNA control, the NCp7-bound ssDNA control and the bound ssDNA for each points of the titration with the ImageQuant software. The IC50 was estimated as the NC inhibitors concentrations for which the bound ssDNA migrated at 50% of the distance separating the bound from the unbound ssDNA.
A general note: A gel shift assay detects complexes by their altered migration in electrophoresis.

The test system of another data set is HeLa cells. Description: HeLa Proliferation assay (CellTiter Glo). The data set is classed as cell-based. The settings on record: 72 hours. Here is the method: HeLa cells (ATCC® CCL2™) in DMEM (Dulbecco Modified Eagle's Medium) without phenol red, Thermo, 11880, USA + 10% FBS + 1X PenStrep + 1X Gln or HUVEC cells (ATCC® CRL1730™) in EBM-2 (Endothelial Growth Basal Medium, Lonza, CC3156) + EGM-2 SingleQuotsTMSupplements and Growth Factors (Lonza, CC4176) + 1X Penicyllin-Streptomycin (PenStrep, ThermoFisher) + 1X Glutamine, are plated in a 384 well plate (Thermo, 4334-11, USA) to a density of 2000 cells per well and let recover for four hours at 37 °C, 5% CO2 in a humidified atmosphere. After the recovery, compounds are transferred to assay plates as per compound preparation method. Assay plates are then incubated at 37 °C, 5% CO2 in a humidified atmosphere for 72 hours. Cell viability is measured by the CellTiter Glo (Promega, G8080, USA) as per manufacturer instruction.
On the technique in general: Cellular ATP, detected with luciferase, serves as a proxy for viable cell number.

In data set [4] the test system is HIV-1 reference strain NL4-3. In words: MonoCycle assay (TZM-bl cells). It counts as cell-based. To be noted: Human immunodeficiency virus 1, NL43, TZM-bl, 48 h, read-out: Mono Cycle IC50 nM. As for the experimental part: MonoCycle assay is a cell based assay allowing the evaluation of antiviral activity of HIV-1 inhibitors targeting the early steps of HIV-1 life cycle such as entry, uncoating of viral particles, reverse transcription and integration. The assay consists in the infection of TZM-bl cells (20,000/well) with the HIV-1 reference strain NL4-3 in presence of serial five-fold dilutions of the investigational inhibitors. After 48 hours, cells were lysed adding 40 µl of Glo Lysis Buffer (Promega) to each well for 5 minutes, then 40 µl of Brighy-Glo Luciferase Reagent (Promega) were added to each well for relative luminescence units (RLU) counting using Glo-Max Multi Detection System (Promega). RLU values from each well were elaborated using the GraphPad v5.0 software to calculate the IC50 of each compound.

The test system of data set [5] is HIV-1 reference strain NL4-3. Description: BiCycle assay (MT-2 then TZM-bl cells). The data set is classed as cell-based. The settings on record: Human immunodeficiency virus 1, NL43, TZM-bl, read-out: BiCycle IC50 nM. As for the experimental part: BiCycle Assay is cell based assay allowing the evaluation of the antiviral activity of HIV-1 inhibitors on the whole replication cycle of HIV-1. The assay consists in a first round of infection of the T-cell line MT-2 followed by infection of TZM-bl cells. MT-2 cells were seeded at a concentration of 50,000 cells/well in a 96-well plate and infected with the HIV-1 reference strain NL4-3 in presence of five-fold dilutions of the investigational compounds. After 72 hours, 50 µl of supernatant from each well, containing the virus produced in the first round of infection, were used to infect TZM-bl cells seeded in a 96-plate well at a concentration of 30,000 cells/well. Two days later, cells were lysed adding 40 µl of Glo Lysis Buffer (Promega) to each well for 5 minutes, then 40 µl of Brighy-Glo Luciferase Reagent (Promega) were added to each well for relative luminescence units (RLU) counting using Glo-Max Multi Detection System (Promega). RLU values from each well were elaborated using the GraphPad v5.0 software to calculate the IC50 of each compound.

The subject of data set [6] is NIH Catalogue Number: 7401. The settings on record: cited from earlier work; for Level of resistance: NRTI resistant strain 7401; for Fold change: strain 7401, resistant virus IC50 to wild-type reference virus IC50 ratio, cut-off in brackets.
The test system of data set [7] is NIH Catalogue Number: 7400. To be noted: cited from earlier work; for Level of resistance: NRTI resistant strain 7400; for Fold change: strain 7400, resistant virus IC50 to wild-type reference virus IC50 ratio, cut-off in brackets.

Structures are written as SMILES. Marks after values point to notes of the source that are not given here. Some results are limits rather than exact numbers.

With `Cc1cc(C#N)cc(C)c1Oc1nc(Nc2ccc(C#N)cc2)nc(N)c1Br` [Etravirine], the Level of resistance entry in [1] (NNRTI resistant strain 12229) and in [2] (NNRTI resistant strain 12231) was “High resistance” each time. Also, the Fold change in data set [1] (strain 12229, resistant virus IC50 to wild-type reference virus IC50 ratio, cut-off in brackets) is listed as 6.8 (2.9^c); in data set [2] (strain 12231, resistant virus IC50 to wild-type reference virus IC50 ratio, cut-off in brackets) it was 8.8 (2.9^c).

On to `C[C@@H](NC(=O)c1nc(-c2ccc(NC(=O)c3cnco3)cn2)nc(O)c1O)C1CCCCC1` [Compound 82, (R)-N-(6-(4-((1-cyclohexylethyl)carbamoyl)-5,6-dihydroxypyrimidin-2-yl)pyridin-3-yl)oxazole-5-carboxamide], for which, on NC(11-55), the IC50 stood at 19.5 µM and the inhibition at 100 µM is above 25%. Also, in data set [3], the EMSA screening results is reported as “Positive (A compound showing >25% inhibition when tested at 100µM concentration is considered as "positive")”. The “Proliferation assay HELA TD50” value in the data set on HeLa cells amounted to 6.5308 µM.

Consider `C[C@@H](NC(=O)c1nc(-c2nccc3[nH]ccc23)nc(O)c1O)C1CCCCC1` [Compound 85, (R)-N-(1-cyclohexylethyl)-5,6-dihydroxy-2-(1H pyrrolo[3,2-c]pyridin-4-yl)pyrimidine-4-carboxamide], for which the 50% inhibitory concentration (IC50) at NC(11-55) is 11.5 µM; in [4] it was above 50000 nM; in data set [5], 2670 nM. For the same molecule, the inhibition at 100 µM against NC(11-55) was above 25%. The EMSA screening results in data set [3] is given as “Positive (A compound showing >25% inhibition when tested at 100µM concentration is considered as "positive")”.

Turning to `Nc1nc(NC2CC2)c2ncn([C@H]3C=C[C@@H](CO)C3)c2n1` [Abacavir], in data set [6], the Level of resistance result is recorded as “High resistance” and the Fold change is reported as 7.4 (4.5^c). In addition, in data set [7], the Level of resistance entry is on record as “High resistance” and the Fold change is 7.7 (4.5^c).

`C[C@H](Cn1cnc2c(N)ncnc21)OCP(=O)(O)O` [Tenofovir]: the Level of resistance entry in data set [6] and in data set [7] was “High resistance” in each case. For the same molecule, the figures for the Fold change in [6] and in [7] were 1.5 (1.4^c) and 2.3 (1.4^c), respectively.

Take `O=C(c1nc(-c2ccccn2)nc(O)c1O)N1CCC(c2ccccc2)CC1` [Compound 9, (5,6-dihydroxy-2-(pyridin-2-yl)pyrimidin-4-yl)(4-phenylpiperidin-1-yl)methanone]: the IC50 worked out at 128 µM on NC(11-55), 32900 nM in data set [4] and 2000 nM in data set [5]. Moreover, the inhibition at 100 µM on NC(11-55) was above 25%. Further, the EMSA screening results in [3] is given as “Negative”.

With `Nc1nc(=O)n([C@@H]2CS[C@H](CO)O2)cc1F` [Emtricitabine], the Level of resistance result in data set [6] and in data set [7] was “High resistance” each time. The Fold change in data set [6] and in data set [7] was >200 (3.5^c) each time.

Consider `Cc1cn([C@H]2C[C@H](N=[N+]=[N-])[C@@H](CO)O2)c(=O)[nH]c1=O` [Zidovudine], for which, in [6], the Level of resistance entry is on record as “High resistance” and the Fold change is reported as 24 (1.9^b). In data set [7], the Level of resistance result is “High resistance” and the Fold change is recorded as 61 (1.9^b).

By IC50 is commonly meant the concentration that inhibits the measured activity by half. What is called inhibition is the change of the read-out against control, counted positive when it falls. Read a low inhibition as little suppression.
